Earlier results, collected in US20120003325A1, “USE OF HELIUM-OXYGEN GAS MIXTURES FOR TREATING PULMONARY ARTERIAL HYPERTENSION” (BAYER SCHERING PHARMA AKTIENGESELLSCHAFT, priority 2008, published 2012).

Details: oil-water mixture

[He] [helium]
solubility relative to the solubility of oxygen or nitrogen: 30%
